According to the NIST ThermoML archive (doi:10.1021/acs.jced.6b00606):

Test: xn = mol fraction of the nth substance listed
Conditions: 100 kPa, Liquid; for speed of sound: Frequency=3 MHz, Sing-around technique in a fixed-path interferometer; for mass density: Vibrating tube method

O=C1CCCCC1 [cyclohexanone] + C1CCOCC1
Conditions	mass density, 293.15 K [kg/m3]	mass density, 298.15 K [kg/m3]	mass density, 303.15 K [kg/m3]	mass density, 308.15 K [kg/m3]	speed of sound, 293.15 K [m/s]	speed of sound, 298.15 K [m/s]	speed of sound, 303.15 K [m/s]	speed of sound, 308.15 K [m/s]
x2 = 0.1175	941.72	937.26	932.48	927.65	1411.4	1394.5	1373.6	1353.2
x2 = 0.1586	939.66	935.2	930.42	925.6	1404.6	1387.3	1366.3	1345.6
x2 = 0.1952	937.78	933.32	928.55	923.74	1398.7	1381	1359.7	1339.1
x2 = 0.2471	935.05	930.59	925.82	921.01	1390.5	1372.1	1350.7	1329.8
x2 = 0.2843	933.05	928.59	923.82	919.01	1384.6	1365.8	1344.4	1323.4
x2 = 0.3396	930	925.53	920.76	915.96	1376.1	1356.7	1335.2	1314
x2 = 0.3784	927.8	923.32	918.56	913.76	1370.3	1350.6	1328.9	1307.6
x2 = 0.4178	925.53	921.03	916.26	911.46	1364.5	1344.5	1322.6	1301.2
x2 = 0.462	922.91	918.41	913.62	908.82	1358.2	1337.8	1315.8	1294.2
x2 = 0.5009	920.56	916.03	911.24	906.44	1352.6	1332.1	1309.9	1288.3
x2 = 0.5486	917.59	913.03	908.24	903.43	1346.1	1325.3	1302.9	1281.1
x2 = 0.5814	915.51	910.91	906.13	901.31	1341.7	1320.7	1298.2	1276.3
x2 = 0.6379	911.8	907.17	902.35	897.53	1334.3	1313.2	1290.3	1268.3
x2 = 0.6899	908.28	903.58	898.75	893.91	1327.7	1306.4	1283.4	1261.3
x2 = 0.7389	904.83	900.08	895.23	890.37	1321.7	1299.7	1277	1254.8
x2 = 0.7804	901.82	897.02	892.14	887.26	1316.8	1294.6	1271.8	1249.6
x2 = 0.8345	897.76	892.89	887.96	883.04	1310.6	1288.1	1265.3	1242.9
x2 = 0.8929	893.19	888.23	883.23	878.25	1304.1	1281.4	1258.5	1236.1

O=C1CCCCCC1 [cycloheptanone] + C1COCCO1
Conditions	mass density, 293.15 K [kg/m3]	mass density, 298.15 K [kg/m3]	mass density, 303.15 K [kg/m3]	mass density, 308.15 K [kg/m3]	speed of sound, 293.15 K [m/s]	speed of sound, 298.15 K [m/s]	speed of sound, 303.15 K [m/s]	speed of sound, 308.15 K [m/s]
x2 = 0.0954	957.02	952.54	948.07	943.61	1466.3	1444.4	1422.1	1399.7
x2 = 0.1589	960.61	956.03	951.46	946.89	1459.2	1437.4	1415.3	1393
x2 = 0.2184	964.09	959.46	954.81	950.18	1452.6	1430.9	1408.9	1386.7
x2 = 0.2555	966.35	961.68	956.99	952.32	1448.6	1426.9	1404.9	1382.8
x2 = 0.3019	969.25	964.56	959.82	955.1	1443.6	1421.9	1400	1377.9
x2 = 0.3487	972.3	967.57	962.78	958.02	1438.6	1416.9	1395.1	1373
x2 = 0.3814	974.5	969.75	964.92	960.13	1435.1	1413.4	1391.6	1369.6
x2 = 0.4324	978.07	973.27	968.38	963.54	1429.7	1408	1386.3	1364.3
x2 = 0.4879	982.15	977.29	972.33	967.42	1423.8	1402.2	1380.5	1358.5
x2 = 0.5219	984.76	979.85	974.85	969.89	1420.3	1398.7	1377	1355
x2 = 0.5723	988.81	983.82	978.74	973.7	1415	1393.4	1371.8	1349.9
x2 = 0.6149	992.39	987.32	982.17	977.06	1410.5	1388.9	1367.4	1345.5
x2 = 0.6687	997.15	991.96	986.73	981.52	1404.8	1383.3	1361.7	1339.9
x2 = 0.7104	1001	995.75	990.44	985.15	1400.4	1378.9	1357.4	1335.6
x2 = 0.7489	1004.7	999.41	994.03	988.66	1396.3	1374.7	1353.3	1331.5
x2 = 0.7919	1009.2	1003.7	998.23	992.77	1391.6	1370.1	1348.6	1326.9
x2 = 0.8475	1015.1	1009.5	1004	998.45	1385.4	1363.9	1342.5	1320.7
x2 = 0.9018	1021.3	1015.6	1010.1	1004.4	1379.3	1357.8	1336.3	1314.5
